Measured values taken from ChEMBL document CHEMBL5465560, “Selectivity Literature for EUbOPEN Chemogenomic Library” (2024).
Each block holds one molecule with its values, some of them ahead of it.

How the values were obtained:
[1] = target: Fibroblast growth factor receptor 1 (Homo sapiens, UniProt P11362); assay: Selectivity interaction (Kinase panel (literature)) EUB0001199aCl FGFR1; settings: at 1 µM
[2] = target: MAP/microtubule affinity-regulating kinase 3 (Homo sapiens) (UniProt P27448); assay: Selectivity interaction (Kinase panel (DSF assay)) EUB0001559a MARK3
MAP/microtubule affinity-regulating kinase 3 (Homo sapiens), sequence (P27448 whole entry, looked up): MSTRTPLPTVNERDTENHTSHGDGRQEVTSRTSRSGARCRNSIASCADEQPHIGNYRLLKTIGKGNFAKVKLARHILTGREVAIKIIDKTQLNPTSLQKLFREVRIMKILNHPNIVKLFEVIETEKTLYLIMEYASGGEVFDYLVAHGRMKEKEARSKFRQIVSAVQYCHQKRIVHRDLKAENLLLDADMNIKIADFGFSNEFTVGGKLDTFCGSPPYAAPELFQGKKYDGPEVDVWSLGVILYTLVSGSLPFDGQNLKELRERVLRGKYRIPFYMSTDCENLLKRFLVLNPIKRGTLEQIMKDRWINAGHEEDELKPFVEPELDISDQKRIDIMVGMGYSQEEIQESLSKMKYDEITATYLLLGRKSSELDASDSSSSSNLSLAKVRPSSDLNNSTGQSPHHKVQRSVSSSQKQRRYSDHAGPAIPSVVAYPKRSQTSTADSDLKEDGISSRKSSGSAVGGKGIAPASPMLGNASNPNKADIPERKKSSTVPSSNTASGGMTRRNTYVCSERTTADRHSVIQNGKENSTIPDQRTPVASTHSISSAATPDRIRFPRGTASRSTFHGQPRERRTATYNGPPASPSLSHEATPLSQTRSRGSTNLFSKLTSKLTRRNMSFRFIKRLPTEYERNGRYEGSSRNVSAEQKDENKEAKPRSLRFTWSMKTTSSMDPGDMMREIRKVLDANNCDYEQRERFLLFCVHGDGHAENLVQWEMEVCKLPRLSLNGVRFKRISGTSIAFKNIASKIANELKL

[3] = target: T1, Mitogen-activated protein kinase kinase kinase 12 (Homo sapiens) (UniProt Q12852); assay: Selectivity interaction (KinomeScan (DiscoverX)) EUB0000595a MAP3K12; settings: at 10 µM
T1 sequence (whole entry): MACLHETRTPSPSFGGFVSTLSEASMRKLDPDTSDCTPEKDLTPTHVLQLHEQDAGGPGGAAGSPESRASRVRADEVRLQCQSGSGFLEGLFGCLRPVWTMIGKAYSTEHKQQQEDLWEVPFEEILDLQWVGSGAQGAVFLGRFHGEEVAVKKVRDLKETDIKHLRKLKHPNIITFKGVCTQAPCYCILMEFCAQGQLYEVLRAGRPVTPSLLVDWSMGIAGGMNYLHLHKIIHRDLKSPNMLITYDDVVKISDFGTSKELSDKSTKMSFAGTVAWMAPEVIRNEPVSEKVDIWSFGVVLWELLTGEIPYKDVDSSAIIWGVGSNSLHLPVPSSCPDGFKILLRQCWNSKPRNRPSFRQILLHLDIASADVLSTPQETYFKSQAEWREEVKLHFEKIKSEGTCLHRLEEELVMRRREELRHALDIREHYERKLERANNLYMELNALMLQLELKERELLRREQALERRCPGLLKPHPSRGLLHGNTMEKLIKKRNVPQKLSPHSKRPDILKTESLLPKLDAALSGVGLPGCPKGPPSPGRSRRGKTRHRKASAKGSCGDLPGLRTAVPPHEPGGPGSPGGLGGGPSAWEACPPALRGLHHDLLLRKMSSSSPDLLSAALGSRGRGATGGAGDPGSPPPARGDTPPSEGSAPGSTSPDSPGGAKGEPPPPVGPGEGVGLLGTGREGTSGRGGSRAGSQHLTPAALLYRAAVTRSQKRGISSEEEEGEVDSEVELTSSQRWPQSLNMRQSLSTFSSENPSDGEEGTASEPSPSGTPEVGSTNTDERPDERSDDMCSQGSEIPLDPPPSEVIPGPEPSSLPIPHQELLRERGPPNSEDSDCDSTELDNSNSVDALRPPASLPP

[4] = target: T2, G protein-coupled receptor kinase 3 (Homo sapiens) (UniProt P35626); assay: Selectivity interaction (KinomeScan (DiscoverX)) EUB0001049a ADRBK2; settings: at 1 µM
T2 sequence (whole entry): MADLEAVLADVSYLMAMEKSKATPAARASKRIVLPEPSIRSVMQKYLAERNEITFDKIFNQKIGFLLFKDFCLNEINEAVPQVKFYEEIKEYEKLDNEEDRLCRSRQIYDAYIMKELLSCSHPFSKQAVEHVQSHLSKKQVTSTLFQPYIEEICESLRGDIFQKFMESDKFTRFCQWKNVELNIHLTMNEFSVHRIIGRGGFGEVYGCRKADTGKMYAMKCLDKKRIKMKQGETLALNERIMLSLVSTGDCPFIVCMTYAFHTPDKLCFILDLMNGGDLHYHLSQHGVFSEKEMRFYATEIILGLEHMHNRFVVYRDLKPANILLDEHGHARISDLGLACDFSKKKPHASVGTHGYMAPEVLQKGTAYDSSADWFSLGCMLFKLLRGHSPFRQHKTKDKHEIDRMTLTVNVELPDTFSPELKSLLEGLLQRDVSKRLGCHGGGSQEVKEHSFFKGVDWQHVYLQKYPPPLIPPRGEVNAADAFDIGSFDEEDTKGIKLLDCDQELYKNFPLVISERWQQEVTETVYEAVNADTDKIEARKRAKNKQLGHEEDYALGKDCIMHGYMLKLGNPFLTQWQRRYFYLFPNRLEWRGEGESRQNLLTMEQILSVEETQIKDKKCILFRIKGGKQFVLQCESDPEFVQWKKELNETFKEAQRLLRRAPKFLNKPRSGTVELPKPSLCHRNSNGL

[5] = target: STE20/SPS1-related proline-alanine-rich protein kinase (Homo sapiens) (UniProt Q9UEW8); assay: Selectivity interaction (KinomeScan (DiscoverX)) EUB0000045b STK39
[6] = target: Protein kinase C theta type (Homo sapiens, UniProt Q04759); assay: Selectivity interaction (KinomeScan (DiscoverX)) EUB0000229b PRKCQ; settings: at 10 µM
Protein kinase C theta type, sequence (Q04759 whole entry, looked up): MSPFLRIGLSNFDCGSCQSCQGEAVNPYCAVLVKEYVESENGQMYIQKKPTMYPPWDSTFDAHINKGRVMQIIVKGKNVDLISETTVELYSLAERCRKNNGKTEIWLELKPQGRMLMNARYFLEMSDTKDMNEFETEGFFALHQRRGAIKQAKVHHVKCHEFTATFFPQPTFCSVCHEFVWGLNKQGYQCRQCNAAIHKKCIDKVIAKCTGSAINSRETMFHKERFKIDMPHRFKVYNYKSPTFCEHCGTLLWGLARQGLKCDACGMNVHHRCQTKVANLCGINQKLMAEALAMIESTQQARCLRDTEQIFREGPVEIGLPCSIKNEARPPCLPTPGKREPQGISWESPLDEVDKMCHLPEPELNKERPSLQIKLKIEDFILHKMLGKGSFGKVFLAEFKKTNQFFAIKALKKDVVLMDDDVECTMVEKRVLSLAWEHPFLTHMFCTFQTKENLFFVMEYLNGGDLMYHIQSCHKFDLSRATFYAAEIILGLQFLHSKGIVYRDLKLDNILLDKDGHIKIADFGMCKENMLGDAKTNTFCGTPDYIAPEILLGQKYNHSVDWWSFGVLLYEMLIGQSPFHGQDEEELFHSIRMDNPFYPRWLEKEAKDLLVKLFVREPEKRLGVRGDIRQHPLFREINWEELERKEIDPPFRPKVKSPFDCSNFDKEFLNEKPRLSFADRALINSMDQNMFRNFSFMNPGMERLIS

[7] = target: T3, Myosin light chain kinase family member 4 (Homo sapiens) (UniProt Q86YV6); assay: Selectivity interaction (KinomeScan (DiscoverX)) EUB0000229b MYLK4; settings: at 10 µM
T3 sequence (whole entry): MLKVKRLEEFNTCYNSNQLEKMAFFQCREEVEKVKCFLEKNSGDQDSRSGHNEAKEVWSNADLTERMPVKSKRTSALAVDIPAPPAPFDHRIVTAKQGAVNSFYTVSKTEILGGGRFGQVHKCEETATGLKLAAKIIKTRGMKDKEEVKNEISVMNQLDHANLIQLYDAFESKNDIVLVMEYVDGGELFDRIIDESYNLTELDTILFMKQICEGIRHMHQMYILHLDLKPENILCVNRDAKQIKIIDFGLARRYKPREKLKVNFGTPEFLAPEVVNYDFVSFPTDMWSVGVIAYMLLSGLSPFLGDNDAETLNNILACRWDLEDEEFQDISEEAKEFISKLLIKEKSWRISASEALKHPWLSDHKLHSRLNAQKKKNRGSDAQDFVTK

[8] = target: Phosphatidylinositol 4,5-bisphosphate 3-kinase catalytic subunit gamma isoform (Homo sapiens) (UniProt P48736); assay: Selectivity interaction (KinomeScan (DiscoverX)) EUB0000229b PIK3CG; settings: at 10 µM
Phosphatidylinositol 4,5-bisphosphate 3-kinase catalytic subunit gamma isoform (Homo sapiens), sequence (P48736 whole entry, looked up, canonical isoform): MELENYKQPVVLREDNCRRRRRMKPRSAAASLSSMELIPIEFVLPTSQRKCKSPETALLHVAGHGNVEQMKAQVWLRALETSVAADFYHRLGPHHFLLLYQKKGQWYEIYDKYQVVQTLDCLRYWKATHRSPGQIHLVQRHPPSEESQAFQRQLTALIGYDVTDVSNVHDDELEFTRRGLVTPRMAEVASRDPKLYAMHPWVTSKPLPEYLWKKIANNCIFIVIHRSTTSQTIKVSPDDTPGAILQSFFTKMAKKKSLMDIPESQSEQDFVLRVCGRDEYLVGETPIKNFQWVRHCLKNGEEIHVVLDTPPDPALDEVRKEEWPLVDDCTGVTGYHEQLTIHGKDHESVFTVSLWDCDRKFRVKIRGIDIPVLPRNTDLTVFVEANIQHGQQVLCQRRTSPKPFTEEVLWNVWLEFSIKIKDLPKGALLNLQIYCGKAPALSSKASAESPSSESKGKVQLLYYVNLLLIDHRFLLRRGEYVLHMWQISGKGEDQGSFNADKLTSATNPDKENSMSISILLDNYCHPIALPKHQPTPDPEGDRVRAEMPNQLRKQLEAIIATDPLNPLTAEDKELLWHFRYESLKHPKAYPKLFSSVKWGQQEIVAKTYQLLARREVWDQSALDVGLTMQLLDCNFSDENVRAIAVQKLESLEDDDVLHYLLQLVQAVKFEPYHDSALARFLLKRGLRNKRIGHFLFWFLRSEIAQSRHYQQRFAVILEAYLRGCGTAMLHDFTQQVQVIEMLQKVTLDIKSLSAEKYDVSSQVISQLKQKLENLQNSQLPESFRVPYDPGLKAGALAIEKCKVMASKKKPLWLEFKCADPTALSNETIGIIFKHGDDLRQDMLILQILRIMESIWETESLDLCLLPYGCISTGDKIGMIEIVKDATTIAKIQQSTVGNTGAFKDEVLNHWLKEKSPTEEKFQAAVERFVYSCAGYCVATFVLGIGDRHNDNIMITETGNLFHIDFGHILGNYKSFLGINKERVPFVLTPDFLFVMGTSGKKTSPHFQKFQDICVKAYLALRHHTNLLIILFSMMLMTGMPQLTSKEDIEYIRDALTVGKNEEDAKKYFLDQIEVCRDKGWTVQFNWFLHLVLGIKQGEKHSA

[9] = target: Platelet-derived growth factor receptor alpha (Homo sapiens, UniProt P16234); assay: Selectivity interaction (KinomeScan (DiscoverX)) EUB0000618a PDGFRA; settings: at 10 µM
Platelet-derived growth factor receptor alpha, sequence (P16234 whole entry): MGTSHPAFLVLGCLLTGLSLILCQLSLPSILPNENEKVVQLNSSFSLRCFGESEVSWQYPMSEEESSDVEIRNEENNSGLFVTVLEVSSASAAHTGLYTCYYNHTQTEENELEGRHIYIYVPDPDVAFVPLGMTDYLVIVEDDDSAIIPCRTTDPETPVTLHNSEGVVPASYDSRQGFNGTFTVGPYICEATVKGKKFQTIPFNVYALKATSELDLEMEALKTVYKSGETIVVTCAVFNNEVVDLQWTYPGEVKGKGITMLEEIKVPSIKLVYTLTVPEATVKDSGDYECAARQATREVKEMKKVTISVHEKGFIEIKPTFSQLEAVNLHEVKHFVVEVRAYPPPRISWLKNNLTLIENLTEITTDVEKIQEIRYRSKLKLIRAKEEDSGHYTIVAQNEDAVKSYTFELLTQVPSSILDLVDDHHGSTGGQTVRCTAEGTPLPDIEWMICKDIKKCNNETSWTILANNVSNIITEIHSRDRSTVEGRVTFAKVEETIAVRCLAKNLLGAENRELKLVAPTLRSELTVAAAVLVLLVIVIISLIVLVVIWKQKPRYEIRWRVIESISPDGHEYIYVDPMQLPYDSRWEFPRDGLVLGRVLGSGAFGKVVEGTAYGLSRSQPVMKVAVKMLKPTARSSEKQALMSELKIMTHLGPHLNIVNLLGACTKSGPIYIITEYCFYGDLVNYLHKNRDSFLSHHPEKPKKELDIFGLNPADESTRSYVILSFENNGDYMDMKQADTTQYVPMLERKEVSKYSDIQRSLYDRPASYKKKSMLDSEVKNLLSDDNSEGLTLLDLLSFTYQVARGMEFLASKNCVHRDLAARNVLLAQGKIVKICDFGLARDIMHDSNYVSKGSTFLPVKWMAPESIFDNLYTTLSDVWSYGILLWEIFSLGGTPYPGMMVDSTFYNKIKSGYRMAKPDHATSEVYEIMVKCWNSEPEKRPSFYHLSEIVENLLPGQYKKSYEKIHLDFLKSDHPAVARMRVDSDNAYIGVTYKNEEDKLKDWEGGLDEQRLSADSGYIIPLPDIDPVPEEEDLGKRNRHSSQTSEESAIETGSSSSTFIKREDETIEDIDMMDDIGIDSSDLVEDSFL

Fibroblast growth factor receptor 1, sequence (P11362 22-822 limits assumed): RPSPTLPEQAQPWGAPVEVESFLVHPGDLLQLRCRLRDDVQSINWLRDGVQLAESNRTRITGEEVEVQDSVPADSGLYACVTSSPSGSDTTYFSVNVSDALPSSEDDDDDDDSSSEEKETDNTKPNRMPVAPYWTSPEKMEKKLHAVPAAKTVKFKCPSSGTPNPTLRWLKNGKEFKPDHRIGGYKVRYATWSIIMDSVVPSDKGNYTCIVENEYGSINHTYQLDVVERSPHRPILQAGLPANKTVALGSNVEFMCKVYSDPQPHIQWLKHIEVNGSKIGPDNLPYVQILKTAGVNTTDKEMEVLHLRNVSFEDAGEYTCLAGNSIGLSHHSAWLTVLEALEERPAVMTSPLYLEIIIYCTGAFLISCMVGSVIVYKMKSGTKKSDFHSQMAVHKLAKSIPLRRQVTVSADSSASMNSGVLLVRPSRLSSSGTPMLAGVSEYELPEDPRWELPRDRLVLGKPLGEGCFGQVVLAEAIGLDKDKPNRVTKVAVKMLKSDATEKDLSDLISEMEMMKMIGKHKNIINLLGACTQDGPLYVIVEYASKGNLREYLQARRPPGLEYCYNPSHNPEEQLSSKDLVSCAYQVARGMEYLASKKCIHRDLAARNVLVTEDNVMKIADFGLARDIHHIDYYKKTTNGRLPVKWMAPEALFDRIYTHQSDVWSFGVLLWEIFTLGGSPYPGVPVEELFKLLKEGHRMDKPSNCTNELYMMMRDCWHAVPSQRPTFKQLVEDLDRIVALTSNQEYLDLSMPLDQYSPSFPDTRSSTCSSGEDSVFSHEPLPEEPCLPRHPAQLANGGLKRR

- % of inhibition [1]: 3%
SMILES: CN1Cc2nccc(-c3cn(C)nc3-c3ccc(F)cc3)c2C1=O

- dTM [2]: 0.7 K
SMILES: CN(C(=O)c1cnn2cccnc12)c1cc2c(cc1N1CCOCC1)C(=O)N(C[C@@H](F)C(C)(C)O)C2

SMILES: COCC(=O)NC/C=C/c1ccc2ncnc(Nc3ccc(Oc4ccc(C)nc4)c(C)c3)c2c1 [CP-724714]
- % of control [3]: 92%

SMILES: COc1cc(Nc2nc(C)cc(-c3cnn4nc(OC)ccc34)n2)cc(C(F)(F)F)c1
- % of control [4]: 100%

SMILES: C=CC(=O)Nc1cc(-n2c(=O)ccc3cnc4ccc(-c5ccc(NS(C)(=O)=O)cc5)cc4c32)ccc1C
- % of control ([5]; at 1 µM): 68%
- % of control ([5]; at 10 µM): 100%

SMILES: COc1cc(N(C)c2ccnc3ccc(C(F)(F)F)cc23)cc(OC)c1OC
- % binding [6]: 66%
- % binding [7]: 98%
- % binding [8]: 99%

SMILES: O[C@H]1CC[C@H](Nc2ncc3nc(Nc4c(F)cc(F)cc4F)n([C@H]4CCOC4)c3n2)CC1
- % of control [9]: 82%
